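Method: 48-hour compound exposure of cells in 96-well plates, five concentrations, linear interpolation of endpoints. TGI: concentration producing complete growth inhibition.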
Tests used:
Experiment in all cases: NCI tumour cell line growth inhibition, 48 h
SK-OV-3 ovarian = test system: SK-OV-3 ovarian
SNB-19 CNS = test system: SNB-19 CNS
SF-539 CNS = test system: SF-539 CNS
XF 498 CNS = test system: XF 498 CNS
EKVX NSCLC = test system: EKVX NSCLC
SR leukemia = test system: SR leukemia
786-0 renal = test system: 786-0 renal
KM20L2 colon = test system: KM20L2 colon
A498 renal = test system: A498 renal
KM12 colon = test system: KM12 colon
HOP-92 NSCLC = test system: HOP-92 NSCLC
M19-MEL melanoma = test system: M19-MEL melanoma
SK-MEL-5 melanoma = test system: SK-MEL-5 melanoma
SF-295 CNS = test system: SF-295 CNS
LOX IMVI melanoma = test system: LOX IMVI melanoma
IGROV1 ovarian = test system: IGROV1 ovarian
MALME-3M melanoma = test system: MALME-3M melanoma
UACC-62 melanoma = test system: UACC-62 melanoma
RPMI-8226 leukemia = test system: RPMI-8226 leukemia
OVCAR-5 ovarian = test system: OVCAR-5 ovarian
OVCAR-8 ovarian = test system: OVCAR-8 ovarian
HL-60(TB) leukemia = test system: HL-60(TB) leukemia
HOP-18 NSCLC = test system: HOP-18 NSCLC
MOLT-4 leukemia = test system: MOLT-4 leukemia
SNB-75 CNS = test system: SNB-75 CNS
K-562 leukemia = test system: K-562 leukemia
DMS 114 small cell lung = test system: DMS 114 small cell lung
ACHN renal = test system: ACHN renal
M14 melanoma = test system: M14 melanoma
NCI-H522 lung = test system: NCI-H522 lung
HCC-2998 colon = test system: HCC-2998 colon
HT29 colon = test system: HT29 colon
U251 CNS = test system: U251 CNS
SW-620 colon = test system: SW-620 colon
RXF-631 renal = test system: RXF-631 renal
CCRF-CEM leukemia = test system: CCRF-CEM leukemia
UACC-257 melanoma = test system: UACC-257 melanoma
A549 NSCLC = test system: A549 NSCLC
LXFL 529 NSCLC = test system: LXFL 529 NSCLC
SN12C renal = test system: SN12C renal
HCT-15 colon = test system: HCT-15 colon
SNB-78 CNS = test system: SNB-78 CNS
HCT-116 colon = test system: HCT-116 colon
DLD-1 colon = test system: DLD-1 colon
SK-MEL-28 melanoma = test system: SK-MEL-28 melanoma
SK-MEL-2 melanoma = test system: SK-MEL-2 melanoma
COLO 205 colon = test system: COLO 205 colon
SF-268 CNS = test system: SF-268 CNS
TK-10 renal = test system: TK-10 renal
OVCAR-3 ovarian = test system: OVCAR-3 ovarian
RXF 393 renal = test system: RXF 393 renal
DMS 273 small cell lung = test system: DMS 273 small cell lung
NCI-H23 lung = test system: NCI-H23 lung
NCI-H460 lung = test system: NCI-H460 lung
UO-31 renal = test system: UO-31 renal

## COc1ccc(NCC#N)cc1
SK-OV-3 ovarian
  TGI: > 100 µM
SNB-19 CNS
  TGI: > 100 µM
SF-539 CNS
  TGI: > 100 µM
XF 498 CNS
  TGI: > 100 µM
EKVX NSCLC
  TGI: > 100 µM
SR leukemia
  TGI: > 100 µM
786-0 renal
  TGI: 75.8 µM
KM20L2 colon
  TGI: > 100 µM
A498 renal
  TGI: > 100 µM
KM12 colon
  TGI: > 100 µM
HOP-92 NSCLC
  TGI: > 100 µM
M19-MEL melanoma
  TGI: > 100 µM
SK-MEL-5 melanoma
  TGI: > 100 µM
SF-295 CNS
  TGI: > 100 µM
LOX IMVI melanoma
  TGI: > 100 µM
IGROV1 ovarian
  TGI: > 100 µM
MALME-3M melanoma
  TGI: > 100 µM
UACC-62 melanoma
  TGI: > 100 µM
RPMI-8226 leukemia
  TGI: > 100 µM
OVCAR-5 ovarian
  TGI: > 100 µM
OVCAR-8 ovarian
  TGI: > 100 µM
HL-60(TB) leukemia
  TGI: > 100 µM
HOP-18 NSCLC
  TGI: > 100 µM
MOLT-4 leukemia
  TGI: > 100 µM
SNB-75 CNS
  TGI: > 100 µM
K-562 leukemia
  TGI: > 100 µM
DMS 114 small cell lung
  TGI: > 100 µM
ACHN renal
  TGI: > 100 µM
M14 melanoma
  TGI: > 100 µM
NCI-H522 lung
  TGI: > 100 µM
HCC-2998 colon
  TGI: > 100 µM
HT29 colon
  TGI: > 100 µM
U251 CNS
  TGI: > 100 µM
SW-620 colon
  TGI: > 100 µM
RXF-631 renal
  TGI: > 100 µM
CCRF-CEM leukemia
  TGI: > 100 µM
UACC-257 melanoma
  TGI: > 100 µM
A549 NSCLC
  TGI: > 100 µM
LXFL 529 NSCLC
  TGI: > 100 µM
SN12C renal
  TGI: > 100 µM
HCT-15 colon
  TGI: > 100 µM
SNB-78 CNS
  TGI: > 100 µM
HCT-116 colon
  TGI: > 100 µM
DLD-1 colon
  TGI: > 100 µM
SK-MEL-28 melanoma
  TGI: > 100 µM
SK-MEL-2 melanoma
  TGI: > 100 µM
COLO 205 colon
  TGI: > 100 µM
SF-268 CNS
  TGI: > 100 µM
TK-10 renal
  TGI: > 100 µM
OVCAR-3 ovarian
  TGI: > 100 µM
RXF 393 renal
  TGI: > 100 µM
DMS 273 small cell lung
  TGI: > 100 µM
NCI-H23 lung
  TGI: > 100 µM
NCI-H460 lung
  TGI: > 100 µM
UO-31 renal
  TGI: > 100 µM

— PubChem BioAssay (NCI)
